“Also recorded” adds a separate entry of the source.
Key:
RAW264.7 cells = assay: Liposome formulations tested in RAW264.7 cells, TNFα ELISA; type: cell-based, mouse; details: formulated in DDA:DSPC liposome, 24 hours
BALB/c mice [1] = assay: Splenocyte restimulation with M72 and intracellular cytokine staining of CD4/CD8 T cells after vaccination; type: in vivo, mouse
Method: (§1) Animal studies were carried out in an OLAW and AAALAC accredited vivarium in accordance with University of Montana's IACUC guidelines for the care and use of laboratory animals. Groups of 10–14 BALB/c mice were vaccinated intramuscularly with 0.125 μg M72 antigen and indicated concentrations of various CLR adjuvant candidates (liposomal formulations) in 50 μl total volume per injection. After 14 days, blood and serum samples were collected and a secondary vaccination was administered. At day 19 (5 days post-secondary vaccination), 3–6 mice per group were euthanized and spleens were harvested the assessment of cell-mediated immunity. At day 28 (14 days post booster vaccination) the remaining 7 mice in each group were euthanized and blood was collected for the measurement of M72 specific humoral immunity.
Spleens were harvested from vaccinated mice 5 days after secondary injections and splenocytes were harvested by disruption of the spleens through a 100 μm filter. Red blood cells were lysed by incubation with red blood cell lysis buffer (Sigma) for 5 min followed by washing in 1x PBS. Cells were plated in a 96 well plate at 5 × 10^6 cells/well in 200 μL complete RPMI1640 media. Cells were incubated with 1 μg/mL M72 antigen for […] at 37°C. After 7 h, GolgiPlug (Brefeldin A, BD Biosciences) was added to each well and incubated at 37°C for a further 12 h. Following incubation, cells were stained with the cell surface antibodies against CD3e PerCP-Cy5.5 (Tonbo Biosciences, 145-2C11), CD4a APC-Cy7 (Tonbo Biosciences, RM4-5) and CD8a PE-Cy7 (Tonbo Biosciences, 53–6.7) and viability stain (Ghost 510, Tonbo Biosciences). Cells were treated with cytofix/cytoperm (BD) and stained with anti-IFNγ PE-CF594 (BD, XMG1.2), anti-IL2 FITC (Biolegend, JES6-5H4), anti-IL-5 PE (BD, TRFK5), anti-IL17A BV421 (Biolegend, TC11-18H10.1), and anti-TNFα APC (Invitrogen, MP6-XT22). Data was collected using an LSRII flow cytometer (BD) and analyzed using FlowJo 10.0 software (TreeStar). Splenocytes were gated on live, single cells, then CD3+ to identify all T cells, then gated as CD4+CD8- to identify CD4 T cells or CD4-CD8+ to identify CD8 T cells. Gates for intracellular cytokine positive CD4 or CD8 T cells are set based on re-stimulation of naïve splenocytes. Gating strategies for the detection of antigen specific CD4+ and CD8+ T cells are outlined in Supplemental Figure 3.
Figure 7 Induction of IL-17 producing CD4+ and CD8+ T cells from an αTDE adjuvanted M72 vaccine. BALB/c mice, 10 per group, were immunized two times i.m. with 0.125 μg antigen plus 2, 10, or 50 nmol of the indicated adjuvant. Spleens were harvested from a subset of 3 mice per group at 5 days post-secondary vaccination. Splenocytes were restimulated with 1 μg/mL whole antigen and transport inhibitors followed by surface staining for CD3, CD4, and CD8 and then intracellular cytokine staining. Data represent percentage of live, CD3^+/CD4^+, left, or CD3^+/CD8^+, right, cells that are also positive for IL-17A upon stimulation.
(§2) Figure 8 B16 liposomes biases a Th17/Th2 adaptive immune response. BALB/c mice, 14 per group, were immunized twice, 14 days apart, i.m with 0.1, 1, or 10 μg of M72 antigen plus either blank DDA:DSPC liposome or B16 loaded (10 nmol final dose) liposome. (A,B) M72-specific serum antibody titers at 14 days post-secondary vaccination. (C–F) Spleens were harvested from mice at 5 days post-secondary vaccination and restimulated with 1 μg/mL whole antigen and transport inhibitors followed by surface staining for CD3, CD4, and CD8 and then intracellular cytokine staining. (C) Percent of live, CD3^+/CD4^+/IL5+ cells, (D) Percent of live, CD3^+/CD8^+/IFNγ+ cells, (E) Percent of live, CD3^+/CD4^+/IL17+ cells, and (F) Percent of live, CD3^+/CD8^+/IL17+ cells. ^*p < 0.05, ^**p < 0.01, ^****p < 0.001.
Supplemental Figure 10. Production of IFNɣ, IL-2, IL-5 or TNFα by CD4 or CD8 T cells in response to various CLR compounds. […]

BALB/c mice [2] = assay: Anti-M72 serum antibody ELISA after i.m. vaccination with M72 antigen plus liposomal adjuvant; type: in vivo, mouse
Method: as §1
Sera was collected from mice 14 days post-primary and 14 days post-secondary injection and diluted according to the expected antibody response (between 1:10 and 1:5000). Plates were coated with 100 μl of the full-length M72 protein at 1 μg/mL. Following washing (PBS plus tween 20) and blocking (SuperBlock, Scytek Laboratories), plates were incubated with diluted serum for 1 h followed by anti-mouse IgG, IgG1, or IgG2a-HRP secondary antibody (Bethyl Laboratories) and TMB substrate (BD). Plates were read at 450 nm. Antibody titers were determined by calculating titer of each sample at OD 0.3.
Figure 6 Serum antibody levels from mice in response to vaccination with recombinant M72 antigen and various αTDE compounds. BALB/c mice, 10 per group, were vaccinated two times i.m. with 0.125 μg antigen plus 2, 10, or 50 nmol of the indicated adjuvant. Serum was analyzed from 7 mice at 14 days post-secondary vaccination for presence of anti-M72 IgG1 and IgG2a antibodies via ELISA.
as §2

[3] = tested on: Hek Blue human or mouse Mincle-expressing cells; type: cell-based; details: top concentrations, 24 h; compared with vehicle only-treated cells

## CCCCCCCC(CCCCCCC)C(=O)OC[C@H]1O[C@H](O[C@H]2O[C@H](COC(=O)C(CCCCCCC)CCCCCCC)[C@@H](O)[C@H](O)[C@H]2O)[C@H](O)[C@@H](O)[C@@H]1O [Compound B16]
RAW264.7 cells
  TNFα secretion from RAW cells in response to liposome formulation: higher levels of TNFα secretion compared to B42
BALB/c mice [1]; 10 nmol B16, 0.1, 1 or 10 μg M72, between groups
  Frequencies of IFNγ+ CD8 T cells or IFNγ+ CD4 T cells: no differences
BALB/c mice [1]; 10 nmol B16, 0.1, 1 or 10 μg M72, compared to blank liposome
  IL-2+ CD4 T cells: similarly increased only in the middle dose
BALB/c mice [1]; 10 nmol B16, compared to antigen matched blank liposome groups
  Frequencies of TNFα+ CD4 T cells: not increased
BALB/c mice [1]; 10 nmol B16, highest antigen dose tested
  Frequencies of IL-5+ CD4 T cells: no difference is observed
BALB/c mice [1]; 10 nmol B16, highest dose of antigen
  Frequencies of IL-5+, IL-2+, and TNFα+ CD8 T cells: not at the highest dose
BALB/c mice [1]; 10 nmol B16, lower doses of antigen, compared to antigen plus blank liposome
  Frequencies of IL-5+, IL-2+, and TNFα+ CD8 T cells: also increased
BALB/c mice [1]; 10 nmol B16, two lower doses of antigen, compared to antigen plus blank liposome
  Frequencies of IL-5+ CD4 T cells: similarly increased
BALB/c mice [1]; 10 nmol liposomal B16 with 0.1 μg and 1 μg M72/mouse, compared to antigen plus blank liposomes
  Frequencies of IL-17+ CD4 and CD8 T cells: significantly higher frequencies
BALB/c mice [1]; 10 nmol liposomal B16 with 10 μg M72, compared to antigen plus blank liposome
  Frequencies of IL-17+ CD4 and CD8 T cells: not significant
BALB/c mice [1]; 0.125 μg antigen plus 2, 10, or 50 nmol liposomal adjuvant, i.m. two times, spleens 5 days post-secondary
  IL-17+ CD4+ and CD8+ T cells (Th17 response) after M72 re-stimulation: greatest frequency of IL-17+ cells; also recorded: more effective
BALB/c mice [2]; 10 nmol B16 liposome, increasing doses of M72 antigen (0.1, 1, 10 μg), 14 dp2
  M72 specific serum IgG1 and IgG2a antibody titers: significantly improved
BALB/c mice [2]; 10 nmol B16 liposome, lowest dose of M72 antigen (0.1 μg)
  M72 specific serum antibody titers: did not exhibit significantly higher antibody titers
BALB/c mice [2]; 0.125 μg M72 antigen plus 2, 10, or 50 nmol adjuvant in DDA:DSPC liposomes, i.m. two times, 14 days post-secondary vaccination
  Anti-M72 serum IgG1 and IgG2a antibody: neither compound significantly enhanced
[3]
  Cell viability of Mincle HEK cells: less substantial decreases

— PMC6403188, “Species-Specific Structural Requirements of Alpha-Branched Trehalose Diester Mincle Agonists” (Frontiers in Immunology, 2019)
